Data as given in patent publication US8609669B2, “Potassium channel modulators” (AbbVie Inc., priority 2010, dated 2013).

Target: T1, KCNQ 2/3 channels (HEK293 cells stably expressing human KCNQ2 and KCNQ3 subunits) (Homo sapiens, UniProt O43525+O43526)
T1 construct: expressed in transfected cells; host or cells: HEK293
Test: KCNQ2/3 channel activation, thallium flux FLIPR assay (BTC-AM dye)
Type: cell-based
Conditions: for Emax: HEK293, maximum response relative to response of retigabine at 10 μM (set at 100%), read-out: Max. %; for EC50: HEK293 cells expressing human KCNQ2 and KCNQ3, FLIPR thallium flux
Procedure: The following example describes the assay that can be used to identify compounds that activate KCNQ 2/3 channels.
HEK293 cells stably expressing human KCNQ2 and KCNQ3 subunits were seeded in 96-well, black-walled, clear-bottomed, poly-D-lysine coated plates (BD Biosciences, Bedford, Mass.) at a density of 1×10^5 cells per well 24 hours before the assay. On the assay day, BTC-AM dye (Invitrogen, Carlsbad, Calif.) was loaded into the cells by replacing the cell culture medium with 100 μL/well of 4 μM dye in DPBS. Dye loading was allowed to proceed for 2 hours at room temperature and then cells were washed twice in 100 μL/well of assay buffer (in mM: 10 HEPES pH 7.3, 5 glucose, 140 Na-gluconate, 2.5 K-gluconate, 3.6 Ca-gluconate, 2 MgSO4, 0.1 Ouabain) to remove unloaded dye. Cells were incubated in 50 μL of assay buffer before loading onto a FLIPR system (Molecular Devices, Sunnyvale, Calif.). Various concentrations of compounds to be assayed were added to the cells in 50 μL of assay buffer and incubated for 4 minutes. The fluorescence signal was initiated by adding 100 μL of assay buffer containing 6 mM TlNO3 and 10 mM K2SO4. Fluors were excited using the 488-nm line of an argon laser and emission was filtered using a 540±30 nm bandpass filter. Fluorescent signals were recorded for 3 minutes. Responses over baseline values were plotted versus concentrations of test compounds to obtain an EC50 value. The maximum response for each test compound was determined relative to the response produced at 10 μM by retigabine. The maximum response of retigabine at 10 μM was set at 100%.

Emax [%] | EC50 [nM] | Compound
140 | 500 to 1000 | COc1cccc(CC(=O)Nc2nn3cc(C)cnc3c2-c2ccc(OC(F)(F)F)cc2)c1 [Example 8, 2-(3-methoxyphenyl)-N-{6-methyl-3-[4-(trifluoromethoxy)phenyl]pyrazolo[1,5-a]pyrimidin-2-yl}acetamide]
182 | < 100 | Cc1cc(C)n2nc(NC(=O)CCC3CCCCC3)c(CC(C)(C)C)c2n1 [Example 14, 3-cyclohexyl-N-[3-(2,2-dimethylpropyl)-5,7-dimethylpyrazolo[1,5-a]pyrimidin-2-yl]propanamide]
117 | 100 to 500 | Cc1cc(-c2c(NC(=O)CCC3CCCC3)nn3c(C)ccnc23)ccc1Cl [Example 46, N-[3-(4-chloro-3-methylphenyl)-7-methylpyrazolo[1,5-a]pyrimidin-2-yl]-3-cyclopentylpropanamide]
142 | 100 to 500 | Cc1cc(C)n2nc(NC(=O)CC3CCCCC3)c(-c3ccc(Cl)cc3)c2n1 [Example 42, N-[3-(4-chlorophenyl)-5,7-dimethylpyrazolo[1,5-a]pyrimidin-2-yl]-2-cyclohexylacetamide]
152 | 1000 to 10000 | O=C(CC12CC3CC(CC(C3)C1)C2)Nc1nn2cccnc2c1-c1ccc(OC(F)(F)F)cc1 [Example 142, 2-(adamantan-1-yl)-N-{3-[4-(trifluoromethoxy)phenyl]pyrazolo[1,5-a]pyrimidin-2-yl}acetamide]
20 | > 10000 | CC(C)(C)OC(=O)Nc1nn2cccnc2c1-c1ccc(OC(F)(F)F)cc1 [Example 148, tert-butyl {3-[4-(trifluoromethoxy)phenyl]pyrazolo[1,5-a]pyrimidin-2-yl}carbamate]
151 | 500 to 1000 | CCC1(c2c(NC(=O)CC3CC4CCC3C4)nn3cccnc23)CCCCC1 (racemic) [Example 146, (±)-exo-2-bicyclo[2.2.1]hept-2-yl-N-[3-(1-ethylcyclohexyl)pyrazolo[1,5-a]pyrimidin-2-yl]acetamide]
66 | > 10000 | O=C(Cc1ccc(F)cc1)Nc1nn2cccnc2c1-c1ccc(OC(F)(F)F)cc1 [Example 140, 2-(4-fluorophenyl)-N-{3-[4-(trifluoromethoxy)phenyl]pyrazolo[1,5-a]pyrimidin-2-yl}acetamide]
195 | 1000 to 10000 | CC(C)(C)c1c(NC(=O)Cc2ccccc2)nn2cccnc12 [Example 137, N-(3-tert-butylpyrazolo[1,5-a]pyrimidin-2-yl)-2-phenylacetamide]
191 | 100 to 500 | CC(C)(C)c1c(NC(=O)Cc2ccc(Cl)cc2)nn2cccnc12 [Example 152, N-(3-tert-butylpyrazolo[1,5-a]pyrimidin-2-yl)-2-(4-chlorophenyl)acetamide]
179 | < 100 | Cc1cnc2c(-c3ccc(F)c(C)c3)c(NC(=O)CC34CC5CC(CC(C5)C3)C4)nn2c1 [Example 151, 2-(adamantan-1-yl)-N-[3-(4-fluoro-3-methylphenyl)-6-methylpyrazolo[1,5-a]pyrimidin-2-yl]acetamide]
122 | 100 to 500 | Cc1ccnc2c(-c3ccc(C(F)(F)F)cc3)c(NC(=O)CCC3CCCCC3)nn12 [Example 79, 3-cyclohexyl-N-{7-methyl-3-[4-(trifluoromethyl)phenyl]pyrazolo[1,5-a]pyrimidin-2-yl}propanamide]
153 | 100 to 500 | CC(C)(C)c1c(NC(=O)CCC2CCCC2)nn2cccnc12 [Example 105, N-(3-tert-butylpyrazolo[1,5-a]pyrimidin-2-yl)-3-cyclopentylpropanamide]
67 | 1000 to 10000 | COc1cccc(CC(=O)Nc2nn3c(C)cc(C)nc3c2-c2cccc(Cl)c2)c1 [Example 54, N-[3-(3-chlorophenyl)-5,7-dimethylpyrazolo[1,5-a]pyrimidin-2-yl]-2-(3-methoxyphenyl)acetamide]

Second part, the molecule before the results:

Compound | Emax [%] | EC50 [nM]
Cc1cc(C)n2nc(NC(=O)CC3CCCCC3)c(-c3ccccc3)c2n1 [Example 94, 2-cyclohexyl-N-(5,7-dimethyl-3-phenylpyrazolo[1,5-a]pyrimidin-2-yl)acetamide] | 155 | < 100
Cc1cc(C)n2nc(NC(=O)CCC3CCCCC3)c(-c3ccc(Cl)c(C)c3)c2n1 [Example 48, N-[3-(4-chloro-3-methylphenyl)-5,7-dimethylpyrazolo[1,5-a]pyrimidin-2-yl]-3-cyclohexylpropanamide] | 68 | 1000 to 10000
Cc1cnc2c(Cc3ccc(F)cc3)c(NC(=O)CC3CCCC3)nn2c1 [Example 5, 2-cyclopentyl-N-(3-(4-fluorobenzyl)-6-methylpyrazolo[1,5-a]pyrimidin-2-yl)acetamide] | 143 | < 100
O=C(CCC1CCCC1)Nc1nn2cccnc2c1-c1cccc(Cl)c1 [Example 56, N-[3-(3-chlorophenyl)pyrazolo[1,5-a]pyrimidin-2-yl]-3-cyclopentylpropanamide] | 98 | 100 to 500
Cc1cnc2c(-c3ccc(F)cc3)c(NC(=O)Cc3ccc(Cl)cc3)nn2c1 [Example 27, 2-(4-chlorophenyl)-N-[3-(4-fluorophenyl)-6-methylpyrazolo[1,5-a]pyrimidin-2-yl]acetamide] | 125 | 100 to 500
CC(C)(C)CC(=O)Nc1nn2cccnc2c1-c1cccnc1 [Example 110, 3,3-dimethyl-N-[3-(pyridin-3-yl)pyrazolo[1,5-a]pyrimidin-2-yl]butanamide] | 8 | > 10000
CCC1(c2c(NC(=O)CCC3CCCC3)nn3cccnc23)CCCCC1 [Example 145, 3-cyclopentyl-N-[3-(1-ethylcyclohexyl)pyrazolo[1,5-a]pyrimidin-2-yl]propanamide] | 182 | 100 to 500
Cc1cnc2c(-c3ccc(F)cc3)c(NC(=O)Cc3ccccc3)nn2c1 [Example 25, N-[3-(4-fluorophenyl)-6-methylpyrazolo[1,5-a]pyrimidin-2-yl]-2-phenylacetamide] | 171 | 100 to 500
COc1ccc(CC(=O)Nc2nn3cc(C)cnc3c2CC(C)(C)C)cc1 [Example 18, N-[3-(2,2-dimethylpropyl)-6-methylpyrazolo[1,5-a]pyrimidin-2-yl]-2-(4-methoxyphenyl)acetamide] | 156 | 1000 to 10000
O=C(Nc1nn2cccnc2c1-c1ccc(Cl)cc1)NC1CCCCC1 [Example 108, 1-[3-(4-chlorophenyl)pyrazolo[1,5-a]pyrimidin-2-yl]-3-cyclohexylurea] | 8 | > 10000
Cc1cc(C)n2nc(NC(=O)CC3CCCC3)c(-c3cccc(Cl)c3)c2n1 [Example 53, N-[3-(3-chlorophenyl)-5,7-dimethylpyrazolo[1,5-a]pyrimidin-2-yl]-2-cyclopentylacetamide] | 143 | < 100
O=C(NCC1CCCCC1)Nc1nn2cccnc2c1-c1ccc(Cl)cc1 [Example 99, 1-[3-(4-chlorophenyl)pyrazolo[1,5-a]pyrimidin-2-yl]-3-(cyclohexylmethyl)urea] | 94 | 1000 to 10000
O=C(Cc1cccnc1)Nc1nn2cccnc2c1-c1ccc(Cl)cc1 [Example 101, N-[3-(4-chlorophenyl)pyrazolo[1,5-a]pyrimidin-2-yl]-2-(pyridin-3-yl)acetamide] | 8 | > 10000
Cc1ccnc2c(-c3cccc(Cl)c3)c(NC(=O)CCc3ccccc3)nn12 [Example 49, N-[3-(3-chlorophenyl)-7-methylpyrazolo[1,5-a]pyrimidin-2-yl]-3-phenylpropanamide] | 123 | 1000 to 10000
Cc1cnc2c(-c3ccc(C)c(Cl)c3)c(NC(=O)Cc3ccc(F)cc3)nn2c1 [Example 72, N-[3-(3-chloro-4-methylphenyl)-6-methylpyrazolo[1,5-a]pyrimidin-2-yl]-2-(4-fluorophenyl)acetamide] | 247 | 100 to 500
CC(C)(C)c1c(NC(=O)CC2CCCC2)nn2cccnc12 [Example 154, N-(3-tert-butylpyrazolo[1,5-a]pyrimidin-2-yl)-2-cyclopentylacetamide] | 188 | 1000 to 10000
O=C(Cc1ccc(F)cc1)Nc1nn2cccnc2c1-c1cccc(F)c1 [Example 82, 2-(4-fluorophenyl)-N-[3-(3-fluorophenyl)pyrazolo[1,5-a]pyrimidin-2-yl]acetamide] | 112 | 500 to 1000
COc1ncc(-c2c(NC(=O)Cc3ccc(F)cc3)nn3cccnc23)cn1 [Example 181, 2-(4-fluorophenyl)-N-[3-(2-methoxypyrimidin-5-yl)pyrazolo[1,5-a]pyrimidin-2-yl]acetamide] | 7 | > 10000
COc1ccc(CC(=O)Nc2nn3c(C)ccnc3c2-c2ccc(C(F)(F)F)cc2)cc1 [Example 80, 2-(4-methoxyphenyl)-N-{7-methyl-3-[4-(trifluoromethyl)phenyl]pyrazolo[1,5-a]pyrimidin-2-yl}acetamide] | 59 | > 10000
